From paper PMC7114193 (Antiviral Research, 2012)

Tests used:
rhACE2 = rhACE2 (Homo sapiens, UniProt Q9BYF1); type: binding
[1] = test system: spike protein and ACE2 interaction; details: cited from earlier work

Chain of rhACE2 (Q9BYF1 18-740): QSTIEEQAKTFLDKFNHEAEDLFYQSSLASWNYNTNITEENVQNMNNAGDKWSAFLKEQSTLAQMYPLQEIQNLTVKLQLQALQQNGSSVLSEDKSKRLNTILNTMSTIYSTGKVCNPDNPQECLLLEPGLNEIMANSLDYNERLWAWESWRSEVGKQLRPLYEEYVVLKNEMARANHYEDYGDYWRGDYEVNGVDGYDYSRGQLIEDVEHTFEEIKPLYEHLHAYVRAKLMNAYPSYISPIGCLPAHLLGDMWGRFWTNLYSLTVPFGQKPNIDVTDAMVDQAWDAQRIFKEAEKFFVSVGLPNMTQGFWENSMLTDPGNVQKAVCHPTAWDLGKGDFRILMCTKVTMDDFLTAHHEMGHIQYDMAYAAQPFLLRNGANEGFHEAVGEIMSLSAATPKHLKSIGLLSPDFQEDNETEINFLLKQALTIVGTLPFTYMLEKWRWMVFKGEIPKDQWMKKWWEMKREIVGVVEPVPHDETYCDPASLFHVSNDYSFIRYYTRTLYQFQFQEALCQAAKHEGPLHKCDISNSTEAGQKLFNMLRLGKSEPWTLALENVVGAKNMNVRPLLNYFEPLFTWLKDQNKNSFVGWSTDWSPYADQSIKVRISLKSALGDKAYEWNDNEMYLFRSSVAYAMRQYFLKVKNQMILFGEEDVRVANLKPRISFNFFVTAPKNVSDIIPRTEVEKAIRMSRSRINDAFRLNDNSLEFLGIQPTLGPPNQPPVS

Substance: NYNYKY [RBD-11a]
- SPR response signal (rhACE2): 5 RU

Substance: ALNSYW [RBD-14a]
- SPR response (rhACE2): 5 RU

Substance: YKYDYL
- SPR binding to ACE2 (in words) (rhACE2): No binding was observed

Substance: YDYRYL
- SPR binding to ACE2 (in words) (rhACE2): No binding was observed

Substance: SYWPLN [RBD-14b]
- SPR binding to ACE2 (in words) (rhACE2): only weak interaction
- SPR response (rhACE2): 7 RU

Substance: FYTTTGIGYQPY [SP-8]
- inhibition of spike protein and ACE2 interaction (in words) [1]: inhibitory activity

Substance: IGYQPY [RBD-15c]
- SPR binding to ACE2 (in words) (rhACE2): no interaction observable
